The values that follow come from PMC9570267, “A Computational QSAR, Molecular Docking and In Vitro Cytotoxicity Study of Novel Thiouracil-Based Drugs with Anticancer Activity against Human-DNA Topoisomerase II” (International Journal of Molecular Sciences, 2022).

The test concerns the target T1, topoisomerase I (Homo sapiens, UniProt P11387).
T1 construct: gene TOP1
T1 sequence (P11387 2-765): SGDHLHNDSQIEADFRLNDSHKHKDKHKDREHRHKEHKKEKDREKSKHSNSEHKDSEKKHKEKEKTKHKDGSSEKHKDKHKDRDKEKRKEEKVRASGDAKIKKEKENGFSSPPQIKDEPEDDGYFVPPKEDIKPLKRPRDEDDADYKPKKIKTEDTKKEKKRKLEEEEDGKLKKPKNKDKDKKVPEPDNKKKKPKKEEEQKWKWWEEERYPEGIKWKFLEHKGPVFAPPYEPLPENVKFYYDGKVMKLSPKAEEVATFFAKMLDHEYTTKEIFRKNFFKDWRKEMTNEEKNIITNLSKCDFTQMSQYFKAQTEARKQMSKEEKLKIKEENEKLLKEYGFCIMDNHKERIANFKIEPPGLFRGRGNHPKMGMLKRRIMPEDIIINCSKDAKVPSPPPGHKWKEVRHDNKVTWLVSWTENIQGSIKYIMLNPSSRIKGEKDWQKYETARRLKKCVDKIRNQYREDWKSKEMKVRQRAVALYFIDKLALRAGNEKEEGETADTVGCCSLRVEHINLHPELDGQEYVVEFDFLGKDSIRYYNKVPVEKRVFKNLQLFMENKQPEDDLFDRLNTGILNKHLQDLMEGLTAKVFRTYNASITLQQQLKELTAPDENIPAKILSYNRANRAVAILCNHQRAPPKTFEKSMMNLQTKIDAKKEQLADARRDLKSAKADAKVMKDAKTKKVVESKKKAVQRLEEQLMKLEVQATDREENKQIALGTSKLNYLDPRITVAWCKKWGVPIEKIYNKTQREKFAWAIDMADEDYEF
As to the kind of experiment: supercoiled plasmid DNA relaxation gel assay (TopoGEN topo I kit). It counts as biochemical.

The IC50 is the concentration that inhibits the measured activity by half.

The compound `COc1ccc(C2C3=C(Nc4[nH]c(=S)[nH]c(=O)c42)c2ccccc2C3=O)cc1` (centres unmarked) [7H] had an IC50 of 30.9 ± 1.49 µM.

Compound `CN(C)c1ccc(C2C3=C(Nc4[nH]c(=S)[nH]c(=O)c42)c2ccccc2C3=O)cc1` (centres unmarked) [9H] came in with an IC50 of 38.8 ± 2.27 µM.
